Eight compounds from ChEMBL document CHEMBL1201862, “PubChem BioAssay data set” (2004) can be followed below.

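The compound was tested at five concentrations on cells cultured in 96-well plates, with a 48-hour exposure period. GI50 = concentration required for 50% inhibition of growth.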 The source made the active and inactive calls. No stated cut-off is given here; in the data, active = GI50 up to about 1.1 µM and inactive = higher.

Test systems include A549; ACHN; BT-549; HCT-116; HCT-15; HL-60; HOP-92; KM12; LOX IMVI; MDA-N; NCI-H460; OVCAR-5; SF-295; SF-539; SK-MEL-2; SW-620; U-251; UO-31; CCRF-CEM.
Holding throughout (test): inhibition of tumour cell growth, NCI panel, 48 h

Take `CCn1c2ccccc2c2ccc(C3C4C(=O)N(c5cccc6ccccc56)C(=O)C4ON3C(C(N)=O)c3ccccc3)cc21` (stereo not drawn): the GI50 in the experiment with A549 is > 25 µM (inactive); with ACHN, > 25 µM (inactive); with BT-549 it was 14.9 µM (inactive); in the experiment with HCT-116 it was 13 µM (inactive); in the experiment with HCT-15 it was 13.3 µM; in the experiment on HL-60 it was 17.7 µM (inactive). In addition, the GI50 is > 25 µM (inactive) in the experiment on HOP-92; 9.95 µM (inactive) with KM12; 13.2 µM (inactive) in the experiment on LOX IMVI; 9.1 µM (inactive) in the experiment with MDA-N; 12.9 µM (inactive) with NCI-H460; 15.1 µM (inactive) with OVCAR-5. For the same compound, the GI50 in the experiment on SF-295 was > 25 µM (inactive); in the experiment on SF-539, 7.59 µM (inactive); in the experiment with SK-MEL-2 it was 12.4 µM (inactive); in the experiment on SW-620, 12.8 µM (inactive); in the experiment with U-251, 10.8 µM (inactive); in the experiment with UO-31, > 25 µM (inactive).

Take `CCOc1ccc(/C=C2\N=C(c3ccc([N+](=O)[O-])cc3)OC2=O)cc1`: the GI50 with A549 was > 100 µM (inactive); in the experiment on ACHN it was > 100 µM (inactive); in the experiment with BT-549, > 100 µM (inactive); in the experiment with CCRF-CEM, > 100 µM (inactive); in the experiment with HCT-116, > 100 µM (inactive); in the experiment on HCT-15, above 100 µM. Moreover, the GI50 in the experiment on HL-60, with HOP-92, in the experiment with KM12, in the experiment on LOX IMVI, with MDA-N and with NCI-H460 was > 100 µM (inactive) in each case. The GI50 with OVCAR-5, with SF-295, in the experiment on SF-539, with SK-MEL-2, with SW-620 and in the experiment with U-251 was > 100 µM (inactive) in each case.

With `COc1c2ccoc2cc2oc(=O)ccc12` [BERGAPTEN], the GI50 in the experiment on A549 was > 100 µM (inactive); with ACHN, > 100 µM (inactive); in the experiment with BT-549, 49 µM (inactive); with CCRF-CEM it was > 100 µM (inactive); with HCT-116, > 100 µM (inactive); with HCT-15, above 100 µM. The GI50 in the experiment on HL-60, in the experiment with HOP-92, in the experiment on LOX IMVI, in the experiment with MDA-N, with NCI-H460 and in the experiment with OVCAR-5 was > 100 µM (inactive) in each case. The GI50 with SF-295 was > 100 µM (inactive); in the experiment with SF-539, > 100 µM (inactive); in the experiment on SK-MEL-2, > 100 µM (inactive); in the experiment on SW-620, > 100 µM (inactive); with U-251, 67.9 µM (inactive).

`C/C(=N\NC(=[Se])N1CCN(c2ccccn2)CC1)c1ccccn1`: the GI50 in the experiment with A549 was 3.72 µM (inactive); in the experiment on ACHN, 2.37 µM (inactive); in the experiment on BT-549, 4.15 µM (inactive); with HCT-116 it was 0.01 µM (active); with HCT-15 it was 0.01 µM; in the experiment with HL-60 it was 0.0432 µM (active). Moreover, the GI50 was 0.508 µM (active) with HOP-92; 0.598 µM (active) with KM12; 0.0268 µM (active) with LOX IMVI; 2.99 µM (inactive) in the experiment on MDA-N; 0.0269 µM (active) in the experiment on NCI-H460; 5.97 µM (inactive) with OVCAR-5. For the same compound, the GI50 in the experiment with SF-295 was 2.42 µM (inactive); in the experiment with SF-539 it was 2.51 µM (inactive); in the experiment with SK-MEL-2, 0.238 µM (active); with SW-620 it was 0.01 µM (active); in the experiment with U-251, 0.00925 µM (active); with UO-31 it was 4.02 µM (inactive).

For the compound `Cc1ccc([N+](=O)[O-])cc1S(=O)(=O)Nc1ccc(C2=NOC(c3ccccc3O)C2)cc1` (stereo not drawn), the GI50 is 4.97 µM (inactive) with A549; 13.1 µM (inactive) with ACHN; 6.27 µM (inactive) in the experiment with BT-549; 8.93 µM (inactive) with CCRF-CEM; 4.54 µM (inactive) in the experiment with HCT-116; 3.44 µM with HCT-15. Besides, the GI50 with HL-60 was 2.17 µM (inactive); in the experiment on HOP-92 it was 26.2 µM (inactive); in the experiment on KM12, 3.16 µM (inactive); with LOX IMVI, 9.95 µM (inactive); in the experiment on MDA-N it was 1.56 µM (inactive); in the experiment with NCI-H460, 4.09 µM (inactive). Besides, the GI50 in the experiment on OVCAR-5 is 33.4 µM (inactive); with SF-295, 3.85 µM (inactive); in the experiment on SF-539, 4.58 µM (inactive); in the experiment with SK-MEL-2, 2.74 µM (inactive); with SW-620 it was 4.18 µM (inactive); with UO-31, < 0.01 µM (active).

For the compound `COc1cc(-c2ccccc2N)c2cccnc2c1OC`, the GI50 with A549 was 3.69 µM (inactive); with ACHN, 3.71 µM (inactive); in the experiment on BT-549 it was 9.14 µM (inactive); in the experiment on CCRF-CEM it was 3.56 µM (inactive); with HCT-116, 1.36 µM (inactive); with HCT-15, 3.58 µM. Besides, the GI50 with HL-60 was 3.98 µM (inactive); in the experiment on HOP-92, 9.53 µM (inactive); in the experiment on KM12, 6.07 µM (inactive); in the experiment with LOX IMVI, 3.4 µM (inactive); in the experiment with MDA-N it was 6.47 µM (inactive); in the experiment on NCI-H460, 11.1 µM (inactive). In addition, the GI50 was 1.54 µM (inactive) in the experiment on SF-295; 6.41 µM (inactive) with SF-539; 12.9 µM (inactive) in the experiment with SK-MEL-2; 2.92 µM (inactive) with SW-620; 4.21 µM (inactive) in the experiment on U-251; 3.8 µM (inactive) in the experiment with UO-31.

For `Cc1ccccc1OC(C)C(=O)NN1C(=O)CC(=O)NC1=S` (stereo not drawn), the GI50 in the experiment on A549 was 68.9 µM (inactive); in the experiment on ACHN, 84.5 µM (inactive); in the experiment on BT-549 it was > 100 µM (inactive); in the experiment on HCT-116 it was > 100 µM (inactive); in the experiment on HCT-15 it was above 100 µM; in the experiment on HL-60, > 100 µM (inactive). For the same compound, the GI50 is > 100 µM (inactive) in the experiment with HOP-92; 92 µM (inactive) with KM12; > 100 µM (inactive) with LOX IMVI; > 100 µM (inactive) in the experiment on MDA-N; > 100 µM (inactive) in the experiment on NCI-H460; > 100 µM (inactive) with OVCAR-5. Further, the GI50 is 86.7 µM (inactive) with SF-295; > 100 µM (inactive) in the experiment with SF-539; > 100 µM (inactive) in the experiment on SK-MEL-2; > 100 µM (inactive) in the experiment on SW-620; > 100 µM (inactive) in the experiment on U-251; > 100 µM (inactive) in the experiment with UO-31.

As to `CC(C)CC(N)C(=O)O` (stereo not drawn), the GI50 with A549 is > 100 µM (inactive); in the experiment on ACHN it was > 100 µM (inactive); in the experiment on BT-549 it was > 100 µM (inactive); with CCRF-CEM, > 100 µM (inactive); with HCT-116, > 100 µM (inactive); with HCT-15, above 100 µM. The GI50 in the experiment with HL-60, with HOP-92, in the experiment with KM12, in the experiment with LOX IMVI, in the experiment with MDA-N and with NCI-H460 was > 100 µM (inactive) in each case. Besides, the GI50 with SF-295, in the experiment on SF-539, in the experiment with SK-MEL-2, in the experiment on SW-620, with U-251 and in the experiment on UO-31 was > 100 µM (inactive) throughout.
